# Reference: patent US9776962B2, “Aromatic compounds with GPR40 agonistic activity” (TAKEDA PHARMACEUTICAL COMPANY LIMITED, priority 2013, dated 2017)
# Biological target: T1, human GPR40 (Homo sapiens, UniProt O14842)
# T1 construct: expressed in transfected cells
# Experiment: Evaluation of human GPR40 agonist activity with increase in intracellular Ca2+ concentration as an index (FLIPR)
# Format: cell-based
# Conditions: test compound 1 μM; CHO(dhfr−) cells stably expressing human GPR40; 100% = 10 μM compound of Example 153, 0% = DMSO
# Description: Plasmid hGPR40/pAKKO-1.11H for mammalian cells expression, wherein cDNA fragment (SEQ ID NO: 1) encoding the full-length human GPR40 was incorporated into an expression vector pAKKO-1.11H (Biochimica et Biophysica Acta vol. 1219 pp. 251-259 (1994)), was transfected into CHO-dhfr(−) cells (ATCC, CRL-9096) by using Lipofectamine 2000 (Invitrogen:11668-019). After transfection, the limiting dilution-culture method was performed to select clone in selection medium (nucleic acid-free α-MEM (Invitrogen:12561-056)) containing 10% dialyzed bovine serum (Invitrogen:26400-044)). The expression level of human GPR40 mRNA was confirmed by TaqMan PCR (Life Technologies), and the intracellular calcium mobilization activity of GPR40 ligand (γ-linolenic acid) was confirmed by FLIPR (Molecular Devices), and a clone of human GPR40 expressing CHO cells was selected.
# Evaluation of Human GPR40 Agonist Activity with Increase in Intracellular Ca^2+ Concentration as an Index
# CHO(dhfr−) cells that stably expressed human GPR40 were suspended in MEMα (Nikken Bio Medical Laboratory) containing 10% dialyzed bovine serum (JR Scientific), 10 mM HEPES (Life Technologies), 100 U/mL penicillin, 100 μg/mL streptomycin (Life Technologies), and plated on a 384 well black/clear cell culture plate at 10,000 cells/well. After culture overnight in a CO2 incubator at 37° C., the culture supernatant was removed, and loading buffer [Ca^2+ probe attached to Calcium Kit II-iCellux (DOJINDO) was dissolved in assay buffer (20 mM HEPES, 0.1% fatty acid-free BSA (Sigma-Aldrich), 2.5 mM probenecid (DOJINDO)-containing HESS (Life Technologies))] was added at 30 μL/well. After leaving for 1 hr at room temperature under light shielding, assay buffer containing the test compound at a final concentration of 1 μM was added at 10 μL/well in FLIPR Tetra (Molecular Devices), and the fluorescence amount was successively measured. Human GPR40 agonist activity calculated using an increase in the intracellular Ca^2+ concentration as an index, wherein the activity of 10 μM of the compound of Example 153 was 100%, and the activity when DMSO was added instead of the test compound was 0%.
# T1 sequence (O14842 whole entry): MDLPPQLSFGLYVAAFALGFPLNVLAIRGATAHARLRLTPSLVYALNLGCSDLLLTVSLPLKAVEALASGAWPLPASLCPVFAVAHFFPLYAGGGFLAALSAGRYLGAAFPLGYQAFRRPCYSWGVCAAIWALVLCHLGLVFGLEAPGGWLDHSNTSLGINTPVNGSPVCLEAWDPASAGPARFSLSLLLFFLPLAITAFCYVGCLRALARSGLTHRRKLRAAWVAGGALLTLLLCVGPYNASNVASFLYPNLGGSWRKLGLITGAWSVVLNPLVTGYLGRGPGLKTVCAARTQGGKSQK
Compound,activation at 1 µM [%],Activity (human GPR40 agonist activity) [%]
"COc1ccc(C(=O)N(CC(F)F)c2ncccn2)c(N2CCC(COc3cc(C(CC(=O)O)C4CC4)ccn3)CC2)c1 (stereo not shown) [Example 167, 3-cyclopropyl-3-(2-((1-(2-((2,2-difluoroethyl)(pyrimidin-2-yl)carbamoyl)-5-methoxyphenyl)piperidin-4-yl)methoxy)pyridin-4-yl)propanoic acid]",90,–
"COc1ccc(C(=O)N(CC(C)(C)C)c2ccnc(C)n2)c(N2CCC(COc3cc(C(CC(=O)O)C4CC4)ccn3)CC2)c1 (stereo not shown) [Example 229, 3-cyclopropyl-3-(2-((1-(2-((2,2-dimethylpropyl) (2-methylpyrimidin-4-yl)carbamoyl)-5-methoxyphenyl)piperidin-4-yl)methoxy)pyridin-4-yl)propanoic acid]",101,–
"COc1ccc(C(=O)N(CC(C)C)c2cc(C#N)ccn2)c(N2CCC(COc3cc(C(CC(=O)O)C4CC4)ccn3)CC2)c1 (stereo not shown) [Example 158, 3-(2-((1-(2-((4-cyanopyridin-2-yl)(2-methylpropyl)carbamoyl)-5-methoxyphenyl)piperidin-4-yl)methoxy)pyridin-4-yl)-3-cyclopropylpropanoic acid]",96,–
"COc1ccc(C(=O)N(CC(F)(F)F)c2cc(C)ncn2)c(N2CCC(COc3cc(C(CC(=O)O)C4CC4)ccn3)CC2)c1 (stereo not shown) [Example 240, 3-cyclopropyl-3-(2-((1-(5-methoxy-2-((6-methylpyrimidin-4-yl)-(2,2,2-trifluoroethyl)-carbamoyl)phenyl)-piperidin-4-yl)methoxy)-pyridin-4-yl)propanoic acid]",99,–
"COc1ccc(C(=O)N(CC(F)F)c2cc(C)ccn2)c(N2CCC(COc3cc(C(CC(=O)O)C4CC4)ccn3)CC2)c1 (stereo not shown) [Example 157, 3-cyclopropyl-3-(2-((1-(2-((2,2-difluoroethyl)(4-methylpyridin-2-yl)carbamoyl)-5-methoxyphenyl)piperidin-4-yl)methoxy)pyridin-4-yl)propanoic acid]",96,–
"COc1ccc(C(=O)N(CC(C)(F)F)c2cc(C)ccn2)c(N2CCC(COc3cc(C(CC(=O)O)C4CC4)ccn3)CC2)c1 (stereo not shown) [Example 147, 3-cyclopropyl-3-(2-((1-(2-((2,2-difluoropropyl)(4-methylpyridin-2-yl)carbamoyl)-5-methoxyphenyl)piperidin-4-yl)methoxy)pyridin-4-yl)propanoic acid]",97,–
"COc1ccc(C(=O)N(CC(C)C)c2cccc(OC)n2)c(N2CCC(COc3cc(C(CC(=O)O)C4CC4)ccn3)CC2)c1 (stereo not shown) [Example 128, 3-cyclopropyl-3-(2-((1-(5-methoxy-2-((6-methoxypyridin-2-yl)(2-methylpropyl)carbamoyl)phenyl)piperidin-4-yl)methoxy)pyridin-4-yl)propanoic acid]",103,–
"Cc1ccc(C(=O)N(CC(C)(C)C)c2cccc(C)n2)c(N2CCC(COc3cc(C(CC(=O)O)C4CC4)ccn3)CC2)c1 (stereo not shown) [Example 258, 3-cyclopropyl-3-(2-((1-(2-((2,2-dimethylpropyl)(6-methylpyridin-2-yl)carbamoyl)-5-methylphenyl)piperidin-4-yl)methoxy)pyridin-4-yl)propanoic acid]",94,–
"COc1ccc(C(=O)N(c2ccccn2)C2CCN(Cc3ccccc3)CC2)c(N2CCC(COc3cc(C(CC(=O)O)C4CC4)ccn3)CC2)c1 (stereo not shown) [Example 190, 3-(2-((1-(2-((1-benzylpiperidin-4-yl)(pyridin-2-yl)carbamoyl)-5-methoxyphenyl)piperidin-4-yl)methoxy)pyridin-4-yl)-3-cyclopropylpropanoic acid]",–,66
"COc1ccc(C(=O)N(CC(F)(F)F)c2ncccn2)c(N2CCC(COc3cc(C(CC(=O)O)C4CC4)ccn3)CC2)c1 (stereo not shown) [Example 166, 3-cyclopropyl-3-(2-((1-(5-methoxy-2-(pyrimidin-2-yl(2,2,2-trifluoroethyl)carbamoyl)phenyl)piperidin-4-yl)methoxy)pyridin-4-yl)propanoic acid]",97,–
"COc1c(F)cc(C(=O)N(CC(C)(C)C)c2cccc(C)n2)c(N2CCC(COc3cc(C(CC(=O)O)C4CC4)ccn3)CC2)c1F (stereo not shown) [Example 253, 3-cyclopropyl-3-(2-((1-(6-((2,2-dimethylpropyl)(6-methylpyridin-2-yl)carbamoyl)-2,4-difluoro-3-methoxyphenyl)piperidin-4-yl)methoxy)pyridin-4-yl)propanoic acid]",74,–
"CSc1ccc(C(=O)N(CC(C)(C)C)c2cccc(C)n2)c(N2CCC(COc3cc(C(CC(=O)O)C4CC4)ccn3)CC2)c1 (stereo not shown) [Example 262, 3-cyclopropyl-3-(2-((1-(2-((2,2-dimethylpropyl)(6-methylpyridin-2-yl)carbamoyl)-5-(methylsulfanyl)phenyl)piperidin-4-yl)methoxy)pyridin-4-yl)propanoic acid]",90,–
"COc1ccc(C(=O)N(CC(F)(F)F)c2nc(C)cc(C)n2)c(N2CCC(COc3cc(C(CC(=O)O)C4CC4)ccn3)CC2)c1 (stereo not shown) [Example 168, 3-cyclopropyl-3-(2-((1-(2-((4,6-dimethylpyrimidin-2-yl)(2,2,2-trifluoroethyl)carbamoyl)-5-methoxyphenyl)piperidin-4-yl)methoxy)pyridin-4-yl)propanoic acid]",100,–
"COc1ccc(C(=O)NCC(F)(F)C(F)(F)F)c(N2CCC(COc3cc(C(CC(=O)O)C4CC4)ccn3)CC2)c1 (stereo not shown) [Example 129, 3-cyclopropyl-3-(2-((1-(5-methoxy-2-((2,2,3,3,3-pentafluoropropyl)carbamoyl)phenyl)piperidin-4-yl)methoxy)pyridin-4-yl)propanoic acid]",81,–
"COc1ccc(C(=O)N(c2ccccn2)C(C)C(C)C)c(N2CCC(COc3cc(C(CC(=O)O)C4CC4)ccn3)CC2)c1 (stereo not shown) [Example 121, 3-cyclopropyl-3-(2-((1-(5-methoxy-2-((3-methylbutan-2-yl)(pyridin-2-yl)carbamoyl)phenyl)piperidin-4-yl)methoxy)pyridin-4-yl)propanoic acid]",95,–
"COc1ccnc(N(CC(C)C)C(=O)c2ccc(OC)cc2N2CCC(COc3cc(C(CC(=O)O)C4CC4)ccn3)CC2)c1 (stereo not shown) [Example 135, 3-cyclopropyl-3-(2-((1-(5-methoxy-2-((4-methoxypyridin-2-yl)(2-methylpropyl)carbamoyl)phenyl)piperidin-4-yl)methoxy)pyridin-4-yl)propanoic acid]",94,–
"COc1ccc(C(=O)N(CC(C)(C)C)c2nccc(C)n2)c(N2CCC(COc3cc(C(CC(=O)O)C4CC4)ccn3)CC2)c1 (stereo not shown) [Example 173, 3-cyclopropyl-3-(2-((1-(2-((2,2-dimethylpropyl)(4-methylpyrimidin-2-yl)carbamoyl)-5-methoxyphenyl)piperidin-4-yl)methoxy)pyridin-4-yl)propanoic acid]",103,–
"CCc1ccc(C(=O)N(CC(C)(C)C)c2cccc(C)n2)c(N2CCC(COc3cccc(C(CC(=O)O)C4CC4)c3)CC2)c1 (stereo not shown) [Example 55, 3-cyclopropyl-3-(3-((1-(2-((2,2-dimethylpropyl)(6-methylpyridin-2-yl)carbamoyl)-5-ethylphenyl)piperidin-4-yl)methoxy)phenyl)propanoic acid]",84,–
"COc1ccc(C(=O)N(C)CC(C)C)c(N2CCC(COc3cccc(C(CC(=O)O)C4CC4)c3)CC2)c1 (stereo not shown) [Example 1, 3-cyclopropyl-3-(3-((1-(5-methoxy-2-(methyl(2-methylpropyl)carbamoyl)phenyl)piperidin-4-yl)methoxy)phenyl)propanoic acid]",97,–
"COc1ccc(C(=O)N(CC2(C)CC2)c2ccccn2)c(N2CCC(COc3cc(C(CC(=O)O)C4CC4)ccn3)CC2)c1 (stereo not shown) [Example 114, 3-cyclopropyl-3-(2-((1-(5-methoxy-2-(((1-methylcyclopropyl)methyl)(pyridin-2-yl)carbamoyl)phenyl)piperidin-4-yl)methoxy)pyridin-4-yl)propanoic acid]",98,–
"COc1ccc(C(=O)N(CC(C)C)c2cccc(C)n2)c(N2CCC(COc3cc(C(CC(=O)O)C4CC4)ccn3)CC2)c1 (stereo not shown) [Example 122, 3-cyclopropyl-3-(2-((1-(5-methoxy-2-((2-methylpropyl)(6-methylpyridin-2-yl)carbamoyl)phenyl)piperidin-4-yl)methoxy)pyridin-4-yl)propanoic acid]",101,–
"COc1ccc(C(=O)N(CC(C)(C)C)c2ccccn2)c(N2CCC(COc3cccc(C(CC(=O)O)C4CC4)c3)C(F)(F)C2)c1 [Example 281, (3S)-cyclopropyl-3-(3-((1-(2-((2,2-dimethylpropyl)-(pyridin-2-yl)carbamoyl)-5-methoxyphenyl)-3,3-difluoropiperidin-4-yl)methoxy)phenyl)-propanoic acid]",92,–
